Where a name gives a salt, the structure may show the parent alone.
The molecules below were run against T1, FAAH (Homo sapiens, UniProt O00519) (assay: Assay Method 1: FAAH assay, 3H-anandamide hydrolysis in homogenate of T84 cells or SK-N-MC cells transfected with human FAAH). Details: average of results, > = solubility limit or highest concentration tested.
T1 sequence (O00519 1-579): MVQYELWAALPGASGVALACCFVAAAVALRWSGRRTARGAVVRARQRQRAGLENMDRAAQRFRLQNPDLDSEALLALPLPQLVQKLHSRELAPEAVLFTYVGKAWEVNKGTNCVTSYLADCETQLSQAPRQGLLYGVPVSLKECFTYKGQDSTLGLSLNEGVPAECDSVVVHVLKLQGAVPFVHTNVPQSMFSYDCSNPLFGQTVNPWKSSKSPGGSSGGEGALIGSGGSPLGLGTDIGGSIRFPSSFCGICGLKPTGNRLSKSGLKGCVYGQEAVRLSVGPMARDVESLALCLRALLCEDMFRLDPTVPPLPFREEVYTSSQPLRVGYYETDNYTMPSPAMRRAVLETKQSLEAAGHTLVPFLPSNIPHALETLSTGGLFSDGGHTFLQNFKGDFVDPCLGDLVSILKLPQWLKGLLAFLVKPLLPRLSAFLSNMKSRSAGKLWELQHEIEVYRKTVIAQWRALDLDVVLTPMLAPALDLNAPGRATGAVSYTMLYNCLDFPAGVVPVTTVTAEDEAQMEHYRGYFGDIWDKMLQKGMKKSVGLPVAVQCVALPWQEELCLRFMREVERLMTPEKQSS
Format: biochemical
Experimental: A. Transfection of Cells with Human FAAH
(§1) A 10-cm tissue culture dish with a confluent monolayer of SK—N-MC cells was split 2 days (d) prior to transfection. Using sterile technique, the media was removed and the cells were detached from the dish by the addition of trypsin. One fifth of the cells were then placed onto a new 10-cm dish. Cells were grown in a 37° C. incubator with 5% CO2 in Minimal Essential Media Eagle with 10% Fetal Bovine Serum. After 2 d, cells were approximately 80% confluent. These cells were removed from the dish with trypsin and pelleted in a clinical centrifuge. The pellet was re-suspended in 400 μL complete media and transferred to an electroporation cuvette with a 0.4 cm gap between the electrodes. Supercoiled human FAAH cDNA (1 μg) was added to the cells and mixed. The voltage for the electroporation was set at 0.25 kV, and the capacitance was set at 960 μF. After electroporation, the cells were diluted into complete media (10 mL) and plated onto four 10-cm dishes. Because of the variability in the efficiency of electroporation, four different concentrations of cells were plated. The ratios used were 1:20, 1:10, and 1:5, with the remainder of the cells being added to the fourth dish. The cells were allowed to recover for 24 h before adding the selection media (complete media with 600 μg/mL G418). After 10 d, dishes were analyzed for surviving colonies of cells. Dishes with well-isolated colonies were used. Cells from individual colonies were isolated and tested.
(§2) T84 frozen cell pellets or transfected SK—N-MC cells (contents of 1×15 cm culture dishes) were homogenized in 50 mL of FAAH assay buffer (125 mM Tris, 1 mM EDTA, 0.2% Glycerol, 0.02% Triton X-100, 0.4 mM Hepes, pH 9). The assay mixture consisted of 50 μL of the cell homogenate, 10 μL of the test compound, and 40 μL of anandamide [1-^3H-ethanolamine] (^3H-AEA, Perkin-Elmer, 10.3 Ci/mmol), which was added last, for a final tracer concentration of 80 nM. The reaction mixture was incubated at rt for 1 h. During the incubation, 96-well Multiscreen filter plates (catalog number MAFCNOB50; Millipore, Bedford, Mass., USA) were loaded with 25 μL of activated charcoal (Multiscreen column loader, catalog number MACL09625, Millipore) and washed once with 100 μL of MeOH. Also during the incubation, 96-well DYNEX MicroLite plates (catalog number NL510410) were loaded with 100 μL of MicroScint40 (catalog number 6013641, Packard Bioscience, Meriden, Conn., USA). After the 1 h incubation, 60 μL of the reaction mixture were transferred to the charcoal plates, which were then assembled on top of the DYNEX plates using Centrifuge Alignment Frames (catalog number MACF09604, Millipore). The unbound labeled ethanolamine was centrifuged through to the bottom plate (5 min at 2000 rpm), which was preloaded with the scintillant, as described above. The plates were sealed and left at rt for 1 h before counting on a Hewlett Packard TopCount.
(§3) Compounds were tested in free base, hydrochloride salt, and/or trifluoroacetic acid salt forms.

Q: `O=C(Nc1ccon1)N1CCN(Cc2cccc(Oc3ccc(F)c(F)c3)c2)CC1` [Example 153, 4-[3-(3,4-Difluorophenoxy)benzyl]-N-isoxazol-3-ylpiperazine-1-carboxamide] was tested. Which IC50 did it give?
A: 460 nM

Q: For `O=C(Nc1cnccn1)N1CCN(Cc2ccc3ccccc3c2)CC1` [Example 213, 4-(Naphthalen-2-ylmethyl)-N-pyrazin-2-ylpiperazine-1-carboxamide], which IC50 is on record?
A: 100 nM

Q: How did the IC50 turn out when `O=C(Nc1ccc(Cl)nn1)N1CCN(Cc2ccc(F)c(Oc3ccccc3)c2)CC1` [Example 45, 4-(4-Fluoro-3-phenoxy-benzyl)-piperazine-1-carboxylic acid (6-chloro-pyridazin-3-yl)-amide trifluoroacetic acid salt] was run?
A: 1500 nM

Q: Which IC50 does the source give for `O=C(Nc1cnccn1)N1CCN(Cc2cccc(Oc3ccc(S(=O)(=O)C(F)(F)F)cc3)c2)CC1` [Example 226, N-Pyrazin-2-yl-4-(3-{4-[(trifluoromethyl)sulfonyl]phenoxy}benzyl)-piperazine-1-carboxamide] here?
A: 6 nM

Q: `O=C(Nc1ccon1)N1CCN(Cc2ccc(OCc3ccccc3)cc2)CC1` [Example 135, 4-[4-(Benzyloxy)benzyl]-N-isoxazol-3-ylpiperazine-1-carboxamide] was tested. Which IC50 did it give?
A: 825 nM

Q: How did the IC50 turn out when `O=C(Nc1cnccn1)N1CCN(Cc2ccc(OCc3ccccc3)cc2)CC1` [Example 219, 4-[4-(Benzyloxy)benzyl]-N-pyrazin-2-ylpiperazine-1-carboxamide] was run?
A: 230 nM

Q: With `O=C(Nc1noc2ccccc12)N1CCN(Cc2ccc3cn[nH]c3c2)CC1` [Example 101, N-1,2-Benzisoxazol-3-yl-4-(1H-indazol-6-ylmethyl)piperazine-1-carboxamide] as the molecule, how does the IC50 read?
A: 6300 nM

Q: For `O=C(Nc1ccon1)N1CCN(Cc2ccc3ccccc3n2)CC1` [Example 146, 4-Quinolin-2-ylmethyl-piperazine-1-carboxylic acid isoxazol-3-ylamide], which IC50 is on record?
A: 3000 nM

Q: How did the IC50 turn out when `O=C(Nc1nn[nH]n1)N1CCN(Cc2ccc3c(c2)OCO3)CC1` [Example 180, 4-Benzo[1,3]dioxol-5-ylmethyl-piperazine-1-carboxylic acid (2H-tetrazol-5-yl)-amide] was run?
A: > 10000 nM

Q: How did the IC50 turn out when `O=C(Nc1cnccn1)N1CCN(Cc2cccc(OCc3ccccc3)c2)CC1` [Example 223, 4-[3-(Benzyloxy)benzyl]-N-pyrazin-2-ylpiperazine-1-carboxamide] was run?
A: 180 nM

Q: `O=C(Nc1noc2ccccc12)N1CCN(Cc2cccc(Oc3ncccn3)c2)CC1` [Example 95, 4-[3-(Pyrimidin-2-yloxy)-benzyl]-piperazine-1-carboxylic acid benzo[d]isoxazol-3-ylamide] was tested. Which IC50 did it give?
A: 2800 nM

Q: With `O=C(Nc1ccon1)N1CCN(Cc2ccc(Br)c(Br)c2)CC1` [Example 154, 4-(3,4-Dibromobenzyl)-N-isoxazol-3-ylpiperazine-1-carboxamide] as the molecule, how does the IC50 read?
A: 1300 nM

Q: Which IC50 does the source give for `O=C(Nc1ccon1)N1CCN(Cc2cc3ccccc3s2)CC1` [Example 142, 4-(1-Benzothiophen-2-ylmethyl)-N-isoxazol-3-ylpiperazine-1-carboxamide] here?
A: 2000 nM

Q: How did the IC50 turn out when `O=C(Nc1nc(-c2ccccc2)ns1)N1CCN(Cc2ccc3c(c2)OC(F)(F)O3)CC1` [Example 2, 4-(2,2-Difluoro-benzo[1,3]dioxol-5-ylmethyl)-piperazine-1-carboxylic acid (3-phenyl-[1,2,4]thiadiazol-5-yl)-amide trifluoroacetic acid salt] was run?
A: 212 nM

These molecules were tested against T2, rat FAAH (Rattus norvegicus, UniProt P97612) (assay: Assay Method 2: FAAH assay, 3H-anandamide hydrolysis in homogenate of SK-N-MC cells transfected with rat FAAH). Details: average of results, > = solubility limit or highest concentration tested.
T2 sequence (P97612 1-579): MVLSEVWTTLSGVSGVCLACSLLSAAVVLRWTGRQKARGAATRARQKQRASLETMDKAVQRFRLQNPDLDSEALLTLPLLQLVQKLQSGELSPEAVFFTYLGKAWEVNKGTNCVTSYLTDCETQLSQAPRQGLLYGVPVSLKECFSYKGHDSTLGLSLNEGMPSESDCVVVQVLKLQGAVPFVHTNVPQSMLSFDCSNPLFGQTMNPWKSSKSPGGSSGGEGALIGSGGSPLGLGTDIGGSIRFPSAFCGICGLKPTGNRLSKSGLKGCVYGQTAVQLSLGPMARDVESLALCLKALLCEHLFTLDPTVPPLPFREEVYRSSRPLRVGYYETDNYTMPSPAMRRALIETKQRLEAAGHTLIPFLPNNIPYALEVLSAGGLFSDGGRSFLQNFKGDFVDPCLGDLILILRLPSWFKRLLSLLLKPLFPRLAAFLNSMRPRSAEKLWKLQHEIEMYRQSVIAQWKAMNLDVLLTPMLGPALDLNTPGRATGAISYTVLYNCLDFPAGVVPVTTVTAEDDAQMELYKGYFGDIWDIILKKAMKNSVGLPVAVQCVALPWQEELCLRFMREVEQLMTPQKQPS
Format: biochemical
Experimental: A. Transfection of Cells with Rat FAAH
as §1, with “rat” for “human”
as §2, §3

Q: `O=C(Nc1ccon1)N1CCN(Cc2cccc(Oc3ccc(F)c(F)c3)c2)CC1` [Example 153, 4-[3-(3,4-Difluorophenoxy)benzyl]-N-isoxazol-3-ylpiperazine-1-carboxamide] was tested. Which IC50 did it give?
A: 8000 nM

Q: For `O=C(Nc1cnccn1)N1CCN(Cc2ccc3ccccc3c2)CC1` [Example 213, 4-(Naphthalen-2-ylmethyl)-N-pyrazin-2-ylpiperazine-1-carboxamide], which IC50 is on record?
A: 320 nM

Q: For `O=C(Nc1ccc(Cl)nn1)N1CCN(Cc2ccc(F)c(Oc3ccccc3)c2)CC1` [Example 45, 4-(4-Fluoro-3-phenoxy-benzyl)-piperazine-1-carboxylic acid (6-chloro-pyridazin-3-yl)-amide trifluoroacetic acid salt], which IC50 is on record?
A: 410 nM

Q: Which IC50 does the source give for `O=C(Nc1cnccn1)N1CCN(Cc2cccc(Oc3ccc(S(=O)(=O)C(F)(F)F)cc3)c2)CC1` [Example 226, N-Pyrazin-2-yl-4-(3-{4-[(trifluoromethyl)sulfonyl]phenoxy}benzyl)-piperazine-1-carboxamide] here?
A: 40 nM

Q: `O=C(Nc1cc[nH]n1)N1CCN(Cc2cccc(Oc3ccc(Cl)cc3)c2)CC1` [Example 53, 4-[3-(4-Chloro-phenoxy)-benzyl]-piperazine-1-carboxylic acid (1H-pyrazol-3-yl)-amide trifluoroacetic acid salt] was tested. Which IC50 did it give?
A: 30 nM

Q: How did the IC50 turn out when `O=C(Nc1ccon1)N1CCC(Cc2ccc(F)cc2)CC1` [Example 24, 4-(4-Fluoro-benzyl)-piperidine-1-carboxylic acid isoxazol-3-ylamide] was run?
A: 4000 nM

Q: `O=C(Nc1ccc2ncccc2n1)N1CCC(Cc2ccc3ccccc3c2)CC1` [Example 17, 4-Naphthalen-2-ylmethyl-piperidine-1-carboxylic acid [1,5]naphthyridin-2-ylamide trifluoroacetic acid salt] was tested. Which IC50 did it give?
A: 517 nM

Q: How did the IC50 turn out when `O=C(Nc1ccc(Cl)nn1)N1CCC(Cc2ccc(F)cc2)CC1` [Example 23, 4-(4-Fluoro-benzyl)-piperidine-1-carboxylic acid (6-chloro-pyridazin-3-yl)-amide] was run?
A: 5000 nM

Q: `O=C(Nc1nnn[nH]1)N1CCN(Cc2ccc3ccccc3n2)CC1` [Example 175, 4-(Quinolin-2-ylmethyl)-N-1H-tetrazol-5-ylpiperazine-1-carboxamide] was tested. Which IC50 did it give?
A: 1000 nM

Q: How did the IC50 turn out when `O=C(Nc1nnn[nH]1)N1CCN(Cc2cccc(Oc3ccc(Cl)cc3)c2)CC1` [Example 57, 4-[3-(4-Chloro-phenoxy)-benzyl]-piperazine-1-carboxylic acid (1H-tetrazol-5-yl)-amide trifluoroacetic acid salt] was run?
A: 167 nM

Q: With `O=C(Nc1ccon1)N1CCN(Cc2cnc3ccccc3c2)CC1` [Example 147, 4-Quinolin-3-ylmethyl-piperazine-1-carboxylic acid isoxazol-3-ylamide] as the molecule, how does the IC50 read?
A: > 10000 nM

Q: `O=C(Nc1cccc2nsnc12)N1CCN(Cc2cccc(Oc3ccc(Cl)cc3)c2)CC1` [Example 37, 4-[3-(4-Chloro-phenoxy)-benzyl]-piperazine-1-carboxylic acid benzo[1,2,5]thiadiazol-4-ylamide trifluoroacetic acid salt] was tested. Which IC50 did it give?
A: 6 nM

— patent US20090062294A1, “HETEROARYL-SUBSTITUTED UREA MODULATORS OF FATTY ACID AMIDE HYDROLASE” (priority 2007, published 2009)
